Test results taken from patent US12036312B2, “Non-aqueous topical compositions comprising a halogenated salicylanilide” (priority 2016, dated 2024).
Values after ≈ are worked out from the molar mass of the structure shown. Read-outs that look alike come from different tables or passages of the source.

Legend:
P. acnes = assay: MIC by agar dilution, Propionibacterium acnes; format: cell-based; conditions: Cutibacterium acnes
Protocol: The strains of P. acnes used were CSS3288, CSS 3023, 998, and 1044 obtained from Luc Dubreuil. P. acnes strains are grown on Brucella blood agar with hemin and vitamin K [1], plates are incubated 48 to 72 hours at 35-37° C. under anaerobic conditions. Brucella blood agar with hemin and vitamin K was prepared as follows: sterile Brucella agar with hemin and vitamin K was tempered to 50-54° C. and the medium was supplemented with 5% lacked horse blood and poured in Petri dishes. Broth cultures are performed in Wilkins-Chalgren broth. All cultures are done under anaerobic conditions in an anaerobic chamber. Agar media was inoculated for single-colony isolation using sterile disposable loops. The MICs of the antibacterial agents was determined by agar dilution. […] Brucella Blood Agar with hemin and vitamin K plates containing series of two-fold dilutions of antibacterial agents were prepared. The base agar was prepared and tempered to 50-54° C. Then the blood supplement and the antibiotics were added and the 7 ml were aseptically poured into six-well culture plates. Once the agar had solidified it was transferred into the anaerobe chamber for 24 hours before use to allow for pre-reduction. Twenty-five microliters of P. acnes culture containing 10^6 CFU of were spotted in each well. The plates were incubated anaerobically for 72 hours at 35-37° C. The MIC is the lowest concentration that inhibits growth of P. acnes.

[1] = test system: methicillin-resistant Staphylococcus aureus (MRSA 01, MRSA 15, MRSA 16); assay: Resistance mutation frequency evaluation, Example 3; format: cell-based
[2] = Mini-pig PK: niclosamide concentration in plasma; format: in vivo, Göttingen SPF mini-pigs; conditions: mini-pigs, day 28, dermal application of the formulations
Protocol: The study was performed in 3 male and 3 female Göttingen SPF mini-pigs from Ellegaard Göttingen Mini-pigs A/S, DK-4261 Dalmose, Denmark. At the start of the acclimatization period, the animals were approximately 6 months old and the body weight was 12.1 to 13.4 kg. An acclimatization period of at least 1 week was allowed, during which the animals were observed daily.
All test fields were semi-occluded with Mefix® (Mölnlycke Health Care, Sweden), allowing the sites to “breathe” while keeping the test substance in place. The Mefix® was kept in place with adhesive tape (Tensoplast, BSN medical, Germany) for 6 hours±30 minutes after application to ensure that the compounds were absorbed into the skin.

P. aeruginosa = conditions: Imperi et al. 2013, cited from earlier work
S. pyogenes [3] = assay: Minimum inhibitory concentration (MIC) assay, Example 1, S. pyogenes strains; format: cell-based; conditions: Streptococcus pyogenes, read-out: MIC
Protocol: Twenty-one other MRSA and methicillin-sensitive S. aureus strains, and 4 Streptococcus pyogenes strains, were also included in the study (Table 2). These covered fusidic acid- and mupirocin-resistant strains, these two types of resistance being of clinical relevance.
Strains were conserved in Luria Bertani (LB) Broth (S. aureus) or Brain Heart Infusion (BHI) (S. pyogenes) supplemented with glycerol 15% (v/v) at −80° C., and reactivated by isolation on LB (S. aureus) or BHI (S. pyogenes) agar plates. Strains were cultivated in Mueller Hinton (MH) Broth-cation adjusted (S. aureus) supplemented with lysed horse blood 2.5% (v/v) (S. pyogenes). All strains were cultivated at 37° C., aerobically for S. aureus strains.
Bacterial cultures were stopped in their exponential growth phase and plates were inoculated with the approximate concentration of 10^3 cells per well. Plates were incubated at 37° C. for 18 hours (S. aureus) or 24 hours (S. pyogenes). Optical density at a wavelength of 600 nm was measured at the end of the incubation time. […] Experiments were performed at least as triplicate biological replicates with all strains.

[4] = published literature values; cited from earlier work
S. pyogenes [5] = assay: MIC assay, Example 2, S. pyogenes strains (in BHI); format: cell-based, Streptococcus pyogenes; conditions: 4 strains
Protocol: Two-hundred-four other MRSA and methicillin-sensitive S. aureus strains, and 4 Streptococcus pyogenes strains, were also included in the study. These covered fusidic acid- and mupirocin-resistant strains, these two types of resistance being of clinical relevance.
Strains were conserved in Luria Bertani (LB) Broth (S. aureus) or Brain Heart Infusion (BHI) (S. pyogenes) supplemented with glycerol 15% (v/v) at −80° C., and reactivated by isolation on LB (S. aureus) or BHI (S. pyogenes) agar plates. Strains were cultivated in Mueller Hinton (MH) Broth-cation adjusted (S. aureus) or BHI (S. pyogenes). All strains were cultivated aerobically (microaerobically for S. pyogenes strains) at 37° C.
Bacterial cultures were stopped in their exponential growth phase and plates were inoculated with the approximate concentration of 5×10^5 cells per well. Plates were incubated at 37° C. for 18 hours (S. aureus) or 24 hours (S. pyogenes). Optical density at a wavelength of 600 nm was measured at the end of the incubation time.

[6] = test system: MRSA 01, MRSA 15 (fusidic acid-resistant), MRSA 16 (mupirocin-resistant); assay: Mutational frequency evaluation (spontaneous single-step mutations), Example 1; format: cell-based, Staphylococcus aureus; conditions: at MIC×1 (Example 1)
MRSA 01 = assay: Effect of pH on the antibacterial activity (MIC in pH-adjusted Mueller-Hinton Broth); format: cell-based, Staphylococcus aureus; conditions: for MIC: Staphylococcus aureus, MRSA
Protocol: Chosen for its relevance regarding bacterial skin infections, the methicillin-resistant S. aureus (MRSA) 01 strain was used. This strain is a community-acquired MRSA clinical isolate of USA 300 type, from a skin abscess.
This strain was conserved in Luria Bertani (LB) Broth supplemented with glycerol 15% (v/v) at −80° C., and reactivated by isolation on LB agar plates. It was then cultivated aerobically in Mueller Hinton (MH) Broth-cation adjusted at 37° C.
The pH of Mueller-Hinton Broth cation-adjusted was adjusted with HCl 2M to 7, 6.5, 6, 5.5, 5, 4.5 and […]. Ten ml of medium for each pH were prepared. The pH of non-adjusted MHBII was equal to 7.4.
Each pH-adjusted samples were filtered on 0.2 μm filters before being used for the MIC determination assay.
Bacterial culture was stopped in its exponential growth phase and plates were inoculated with the approximate concentration of 5×10^5 cells per well. Plates were incubated at 37° C. for 18 hours (S. aureus). Optical density at a wavelength of 600 nm was measured at the end of the incubation time.
The experiment was performed in triple biological replicates.

[7] = P. acnes, agar dilution, anaerobic, 72 hours, read-out: MIC

Q: For `CC(=O)O[C@H]1C[C@@]2(C)[C@@H](C[C@@H](O)[C@H]3[C@@]4(C)CC[C@@H](O)[C@@H](C)[C@@H]4CC[C@@]32C)/C1=C(\CCC=C(C)C)C(=O)O` [Fusidic acid, fusidic acid], which MIC (P. acnes; [7]) is on record?
A: 4 µg/mL (≈ 7.74 µM)

Q: What about the mutational frequency ([1]; at MIC×1) of the same compound?
A: ≥ 4.10^−5

Q: What about the mutational frequency ([1]; at MIC×10) of the same compound?
A: 3.10^−7

Q: With `O=C(Nc1ccc([N+](=O)[O-])cc1Cl)c1cc(Cl)ccc1O` [Niclosamide, niclosamide] as the compound, how does the MIC (P. acnes; [7]) read?
A: 0.5 µg/mL (≈ 1.53 µM)

Q: What about the “concentration in the plasma” value [2] of the same compound?
A: less than 0.651 ng/mL

Q: And the “effect on growth of P. aeruginosa” value (P. aeruginosa)?
A: does not affect the growth of P. aeruginosa

Q: And the “concentration at which some inhibition was detected (quorum sensing)” value (P. aeruginosa; P. aeruginosa)?
A: 1 µM

Q: And the “concentration required for optimal activity (quorum sensing)” value (P. aeruginosa; P. aeruginosa)?
A: 20 µM

Q: And the MIC (S. pyogenes [3]; ATCC12385, S. pyogenes strain ATCC 12385)?
A: 1.6 µg/mL (≈ 4.89 µM)

Q: And the MIC (S. pyogenes [3]; ATCC19615, S. pyogenes strain ATCC 19615)?
A: 3.2 µg/mL (≈ 9.78 µM)

Q: And the MIC (S. pyogenes [3]; CCUG25571, S. pyogenes strain CCUG 25571)?
A: 3.2 µg/mL (≈ 9.78 µM)

Q: What about the MIC (S. pyogenes [3]; S. pyogenes strain 01) of the same compound?
A: 3.2 µg/mL (≈ 9.78 µM)

Q: And the LD50 mice p.o [4]?
A: >1500 mg/kg

Q: What about the “MIC distribution: percentage of Streptococcus pyogenes strains” value (shortened to “MIC distribution: percentage”) (S. pyogenes [5]; MIC 0.0625 μg/ml) of the same compound?
A: 25%

Q: What about the “MIC distribution: percentage” value (S. pyogenes [5]; MIC 0.5 μg/ml) of the same compound?
A: 25% (1/4)

Q: And the “MIC distribution: percentage” value (S. pyogenes [5]; MIC […])?
A: 25% (1/4)

Q: And the mutational frequency ([1]; at MIC×1, all tested strains (MRSA 01, MRSA 15, MRSA 16), below the detection limit)?
A: < 4.10^−9

Q: What about the mutational frequency [6] of the same compound?
A: < 4×10^−10

Q: What about the MIC (MRSA 01; MRSA 01, pH 7.0 (actual pH 7.071), Replicate 2) of the same compound?
A: 0.125 µg/mL (≈ 0.382 µM)

Q: What about the MIC (MRSA 01; pH 7.4, MRSA 01, pH not adjusted (actual pH 7.4), Replicate 1) of the same compound?
A: 0.5 µg/mL (≈ 1.53 µM)

Q: What about the MIC (MRSA 01; pH 7.4, MRSA 01, pH not adjusted (actual pH 7.4), Replicate 3) of the same compound?
A: 0.5 µg/mL (≈ 1.53 µM)

Q: And the “inhibitory activity against MRSA 01 as a function of pH” value (MRSA 01; pH-adjusted Mueller-Hinton Broth)?
A: increased when pH was decreased

Q: With `C=C[C@]1(C)C[C@@H](OC(=O)CS[C@@H]2C[C@H]3CC[C@@H](C2)N3C)[C@]2(C)[C@H](C)CC[C@]3(CCC(=O)[C@H]32)[C@@H](C)[C@@H]1O` [Retapamulin, retapamulin] as the compound, how does the MIC (P. acnes; 72 h) read?
A: 0.016 µg/mL (≈ 0.0309 µM)
